Results on two compounds are retold here after patent US20040127718A1, “Substituted imidazoles” (Novo Nordisk A/S, priority 2001, published 2004).

Test [1] has as its target T1, H3 receptor (Homo sapiens, UniProt Q9Y5N1).
T1 construct: expressed in transfected cells; pcDNA3)
In words: Binding Assay III: [125I]-iodoproxifan binding to membranes of h-H3-HEK 293 clones. To be noted: 30 pM [125I]-iodoproxifan, h-H3-HEK 293 membranes. As to the method:
The H3 receptor was cloned by PCR and subcloned into the pcDNA3 expression vector. Cells stably expressing the H3 receptor were generated by transfecting the H3-expression vectors into HEK 293 cells and using G418 to select for H3 clones. The h-H3-HEK 293 clones were cultured in DMEM with glutamax, 10% FCS, 1% Pen/Strep and 1 mg/ml G 418 at 37° C. and 5% CO2. Before harvesting, the confluent cells were rinsed with PBS and incubated with Versene for approximately 5 minutes. The cells were flushed with PBS and DMEM and the cellsuspension collected in a tube and centrifuged for 5-10 min at 1500 rpm in a Heraeus Sepatech Megafuge 1.0. The pellet was resuspended in 10-20 vol. Hepes buffer (20 mM Hepes, 5 mM MgCl2, pH 7.1 (KOH)) and homogenized for 10-20 seconds using a Ultra-Turrax homogenizer. The homogenate was centrifuged for 30 min at 23 000 g. The pellet was resuspended in 5-10 ml Hepes buffer, homogenized 5-10 seconds with the Ultra-Turrax and centrifuged for 10 min at 23 000 g. Following this centrifugation step, the membrane pellet was resuspended in 2-4 ml Hepes buffer, homogenized with a syringe or teflonhomogenizer, and the protein concentration determined. The membranes were diluted to a protein concentration of 1-5 mg/ml in Hepes buffer, aliquoted and kept at −80° C. until use. […]

In test [2] the target is T1, H3 receptor. The test is described as follows: Functional Assay: cAMP accumulation (Flash Plate) in HEK293 cells expressing the human H3 receptors. To be noted: cAMP accumulation stimulated with isoprenaline, h-H3-HEK 293 cells. In kind it is cell-based. The method, then: The ability of the compounds to interact with the histamine H3 receptor as agonists, inverse agonists and/or competitive antagonists, was determined by an in vitro functional assay utilizing membranes from HEK293 cell expressing the human H3 receptors.
The H3 receptor was cloned by PCR and subcloned into the pcDNA3 expression vector. Cells stably expressing the H3 receptor were generated by transfecting the H3-expression vectors into HEK 293 cells and using G418 to select for H3 clones. The h-H3-HEK 293 clones were cultured in DMEM with glutamax, 10% FCS, 1% Pen/Strep and 1 mg/ml G 418 at 37° C. and 5% CO2.
The H3 receptor expressing cells were washed once with phosphate buffered saline (PBS) and harvested using versene (GIBCO-BRL). PBS was added and the cells were centrifuged for 5 min at 188 g. The cell pellet was resuspended in stimulation buffer to a concentration of 1×10^6 cells/ml. cAMP accumulation was measured using the Flash Plate® cAMP assay (NEN™ Life Science Products). […] The plates were then sealed with plastic, shaken for 30 minutes, allowed to stand overnight, and finally the radioactivity was counted in the Cobra II auto gamma topcounter. EC50 values were calculated by non-linear regression analysis of dose response curves (6 points minimum) using GraphPad Prism. Kb values were calculated by Schild plot analysis.

Some results are limits rather than exact numbers.

T1 sequence (Q9Y5N1 whole entry): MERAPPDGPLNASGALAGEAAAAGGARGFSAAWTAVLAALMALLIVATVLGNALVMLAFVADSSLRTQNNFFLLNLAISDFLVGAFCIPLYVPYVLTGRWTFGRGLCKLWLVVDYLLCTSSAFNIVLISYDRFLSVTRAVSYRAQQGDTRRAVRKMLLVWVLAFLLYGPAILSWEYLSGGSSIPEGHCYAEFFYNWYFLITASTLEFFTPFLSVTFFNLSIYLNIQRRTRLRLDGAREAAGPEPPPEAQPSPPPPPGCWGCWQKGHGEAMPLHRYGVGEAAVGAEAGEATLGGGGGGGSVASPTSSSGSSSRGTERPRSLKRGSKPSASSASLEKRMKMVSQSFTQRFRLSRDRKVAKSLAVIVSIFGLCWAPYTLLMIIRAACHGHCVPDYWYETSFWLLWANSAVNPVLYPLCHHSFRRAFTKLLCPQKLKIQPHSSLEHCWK

Take `Cc1[nH]cnc1CCCCOc1ccc2ccccc2c1` [Example 15/5, 5-Methyl-4-[4-(naphthalen-2-yloxy)-butyl]-1H-imidazole]: the IC50 at H3 receptor [1] was < 100 nM. The 50% effective concentration (EC50) on H3 receptor [2] was < 100 nM.

Take `Cc1[nH]cnc1CCCOCc1cccc(I)c1` [Example 16/14, 4-[3-(3-Iodo-benzyloxy)-propyl]-5-methyl-1H-imidazole]: the IC50 on H3 receptor [1] was < 50 nM. At H3 receptor [2], the EC50 is < 50 nM.
